Data on 2 compounds can be found in article PMC10062609 (PLOS ONE, 2023).

This experiment addresses Nicotinamide phosphoribosyltransferase (NAMPT) (Homo sapiens, UniProt P43490). The experiment can be described thus: biochemical.

Usually EC50 stands for the concentration needed to bring the measured effect to its halfway point.

Chain of Nicotinamide phosphoribosyltransferase (NAMPT) (P43490 whole entry): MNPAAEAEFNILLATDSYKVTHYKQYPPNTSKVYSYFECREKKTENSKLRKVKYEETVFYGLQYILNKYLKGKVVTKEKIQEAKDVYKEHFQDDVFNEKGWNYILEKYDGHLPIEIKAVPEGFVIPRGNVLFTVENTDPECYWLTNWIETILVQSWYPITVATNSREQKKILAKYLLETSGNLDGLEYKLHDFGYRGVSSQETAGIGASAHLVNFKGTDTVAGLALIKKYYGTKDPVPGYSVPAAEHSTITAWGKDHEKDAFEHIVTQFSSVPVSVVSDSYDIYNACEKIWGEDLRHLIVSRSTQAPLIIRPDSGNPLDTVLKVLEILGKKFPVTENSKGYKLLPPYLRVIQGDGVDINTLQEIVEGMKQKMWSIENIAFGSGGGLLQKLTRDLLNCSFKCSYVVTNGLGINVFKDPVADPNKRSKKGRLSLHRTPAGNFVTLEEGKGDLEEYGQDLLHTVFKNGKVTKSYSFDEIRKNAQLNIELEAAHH

`C[C@@H]1O[C@@H](Oc2c(-c3cc(O)c(O)c(O)c3)oc3cc(O)cc(O)c3c2=O)[C@H](O)[C@H](O)[C@H]1O` [compound 2, Myricitrin]: the response was half-maximal at 6.18 µM (EC50).

`O=c1cc2oc3cc(O)c(O)cc3c(-c3ccccc3O)c-2cc1O` [compound 20, NSC9037] showed an EC50 of 3.58 µM. This EC50 is about 1.7-fold lower than that of the compound before.
